ChEMBL document CHEMBL3994582, “A2B adenosine receptor antagonists: Design, synthesis and biological evaluation of novel xanthine derivatives” (Eur J Med Chem, 2017)
The source made the active and inactive calls. The rule behind the calls is not given here.

How the values were obtained:
Adenosine receptor A2b [1] = target: T1, Adenosine receptor A2b (Homo sapiens, UniProt P29275); test: Displacement of [3H]-MRS-1754 from human adenosine receptor A2b expressed in HEK293 cell membranes after 90 mins by liquid scintillation counting method
T1 sequence (P29275 whole entry): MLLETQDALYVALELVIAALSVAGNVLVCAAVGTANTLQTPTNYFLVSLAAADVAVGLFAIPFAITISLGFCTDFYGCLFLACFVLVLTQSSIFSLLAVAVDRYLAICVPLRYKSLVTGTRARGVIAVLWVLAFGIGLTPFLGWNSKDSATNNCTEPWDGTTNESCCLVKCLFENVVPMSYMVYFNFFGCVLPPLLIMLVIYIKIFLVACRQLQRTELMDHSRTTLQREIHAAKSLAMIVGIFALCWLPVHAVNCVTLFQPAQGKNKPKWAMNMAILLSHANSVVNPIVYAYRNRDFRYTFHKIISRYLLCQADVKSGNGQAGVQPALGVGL

[2] = target: T2, Adenosine receptor A1 (Homo sapiens) (UniProt P30542); test: Displacement of [3H]DPCPX from human adenosine receptor A1 expressed in HEK293 cell membranes at 0.1 uM after 90 mins by liquid scintillation counting method relative to control
T2 sequence (whole entry): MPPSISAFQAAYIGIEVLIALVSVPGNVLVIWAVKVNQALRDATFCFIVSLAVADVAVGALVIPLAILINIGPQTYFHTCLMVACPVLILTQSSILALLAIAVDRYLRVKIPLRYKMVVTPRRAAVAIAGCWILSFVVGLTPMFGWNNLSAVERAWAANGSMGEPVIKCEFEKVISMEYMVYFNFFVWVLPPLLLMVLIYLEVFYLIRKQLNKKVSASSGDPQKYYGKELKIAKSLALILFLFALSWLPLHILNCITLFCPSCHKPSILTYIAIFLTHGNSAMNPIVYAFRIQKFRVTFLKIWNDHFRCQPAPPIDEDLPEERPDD

Adenosine receptor A2a [3] = target: T3, Adenosine receptor A2a (Homo sapiens, UniProt P29274); test: Displacement of [3H]-ZM-241385 from human adenosine receptor A2a expressed in HEK293 cell membranes at 0.1 uM after 90 mins by liquid scintillation counting method relative to control
[4] = target: T4, Adenosine receptor A3 (Homo sapiens) (UniProt P0DMS8); test: Displacement of [3H]-HEM-ADO from human adenosine receptor A3 expressed in HEK293 cell membranes at 1 uM after 90 mins by liquid scintillation counting method relative to control
T4 sequence (whole entry): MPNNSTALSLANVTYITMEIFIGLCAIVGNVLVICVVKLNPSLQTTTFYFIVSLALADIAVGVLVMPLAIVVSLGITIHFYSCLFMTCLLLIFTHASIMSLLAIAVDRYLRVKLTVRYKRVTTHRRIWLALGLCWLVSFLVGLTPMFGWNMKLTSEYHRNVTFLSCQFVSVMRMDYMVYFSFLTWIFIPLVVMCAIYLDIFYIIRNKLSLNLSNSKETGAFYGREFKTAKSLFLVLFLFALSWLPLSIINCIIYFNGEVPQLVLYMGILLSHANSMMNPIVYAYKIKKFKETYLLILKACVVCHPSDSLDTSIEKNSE

Liver [5] = test: Metabolic stability in mouse liver microsomes assessed as metabolic rate per mg protein preincubated for 5 mins followed by NADPH addition measured up to 30 mins by LC-MS/MS analysis; assay type: ADME, microsome; details: 0.5 h
Liver [6] = test: Metabolic stability in human liver microsomes assessed as metabolic rate per mg protein preincubated for 5 mins followed by NADPH addition measured up to 30 mins by LC-MS/MS analysis; assay type: ADME, microsome; details: 0.5 h
Adenosine receptor A1 = target: T5, Adenosine receptor A1 (Homo sapiens, UniProt P30542); test: Displacement of [3H]DPCPX from human adenosine receptor A1 expressed in HEK293 cell membranes after 90 mins by liquid scintillation counting method
T5 sequence (P30542 whole entry): T2 sequence (whole entry)

Adenosine receptor A2a [7] = target: T3, Adenosine receptor A2a; test: Displacement of [3H]-ZM-241385 from human adenosine receptor A2a expressed in HEK293 cell membranes after 90 mins by liquid scintillation counting method
Homo sapiens [8] = organism: Homo sapiens; test: Selectivity ratio of Ki for human adenosine receptor A1 expressed in HEK293 cell membranes to Ki for human adenosine receptor A2b expressed in HEK293 cell membranes; assay type: cell-based
Homo sapiens [9] = organism: Homo sapiens; test: Selectivity ratio of Ki for human adenosine receptor A2a expressed in HEK293 cell membranes to Ki for human adenosine receptor A2b expressed in HEK293 cell membranes; assay type: cell-based
Adenosine receptor A2b [10] = target: T1, Adenosine receptor A2b; test: Antagonist activity at human adenosine receptor A2b expressed in HEK293 cells assessed as inhibition of NECA-induced cAMP level preincubated for 15 mins followed by NECA stimulation for 15 mins by HTRF assay; assay type: functional, cell-based
[11] = Cmax in C57BL/6J mouse at 10 mg/kg, po via gavage by LC-MS/MS analysis; assay type: ADME, organism-based; set-up: dose 10 mg/kg, route oral; details: in vivo
[12] = AUC(0 to t) in C57BL/6J mouse at 10 mg/kg, po via gavage by LC-MS/MS analysis; assay type: ADME, organism-based; details: in vivo
[13] = Half life in C57BL/6J mouse at 10 mg/kg, po via gavage by LC-MS/MS analysis; assay type: ADME, organism-based; details: in vivo
[14] = Oral bioavailability in C57BL/6J mouse at 10 mg/kg via gavage by LC-MS/MS analysis; assay type: ADME, organism-based; details: in vivo
[15] = Solubility of the compound; assay type: physicochemical
[16] = Inhibition of CYP450 (unknown origin); assay type: ADME, Homo sapiens
MDCK = test: Cytotoxicity against MDCK cells; details: Canis lupus familiaris
HepG2 = test: Cytotoxicity against human HepG2 cells
Mus musculus [17] = test: (§1) Antiallergic activity in Balb/c mouse model of ovalbumin-induced allergic asthma assessed as inhibition of NECA-induced airway hyperresponsiveness in ovalbumin sensitized mouse at 3 mg/kg, ip bid administered 1 hr before OVA challenge for 60 mins followed by test compound treatment 5 hrs after OVA challenge on day 12 to 15 measured on day 15; assay type: functional, organism-based
Mus musculus [18] = test: as §1, with “total cell count in BALF” for “NECA-induced airway hyperresponsiveness”; assay type: functional, organism-based

T3 sequence (P29274 whole entry): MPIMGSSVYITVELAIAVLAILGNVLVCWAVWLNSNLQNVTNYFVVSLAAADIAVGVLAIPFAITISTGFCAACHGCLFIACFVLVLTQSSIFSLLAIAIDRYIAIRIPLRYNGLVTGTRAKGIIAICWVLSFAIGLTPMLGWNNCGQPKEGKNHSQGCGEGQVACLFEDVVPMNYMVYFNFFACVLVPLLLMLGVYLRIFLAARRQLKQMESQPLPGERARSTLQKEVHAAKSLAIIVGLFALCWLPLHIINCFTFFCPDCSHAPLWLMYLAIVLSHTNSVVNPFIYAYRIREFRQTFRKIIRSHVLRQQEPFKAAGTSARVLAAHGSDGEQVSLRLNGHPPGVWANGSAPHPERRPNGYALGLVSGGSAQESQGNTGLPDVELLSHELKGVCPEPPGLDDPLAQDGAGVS

Ki (Adenosine receptor A2b [1]) [nM] | inhibition [2] [%] | inhibition (Adenosine receptor A2a [3]) [%] | inhibition [4] [%] | Drug metabolism (Liver [5]) [nmol/min/mg] | Drug metabolism (Liver [6]) [nmol/min/mg] | Ki (Adenosine receptor A1) [nM] | Ki (Adenosine receptor A2a [7]) [nM] | Ki (Adenosine receptor A2b [10]) [nM] | Cmax [11] [µM] | AUC(0-t) [12] [µM·h] | half-life [13] [h] | bioavailability [14] [%] | Compound | Ratio Ki (Homo sapiens [8]) | Ratio Ki (Homo sapiens [9]) | other results
1 | 49 | 52 | 0 | 0.16 | 0.02 | 108 | 124 | 0.9 | 16.7 | 21 | 2.4 | 27 | CCCn1c(=O)c2[nH]c(-c3cnn(CC4CC(=O)N(c5ccc(C(F)(F)F)cc5)C4)c3)nc2n(CCC)c1=O (configuration not stated) | 108 | 124 | 
3 | 25 | 46 | 0 | 0 | 0.02 | > 800 | 53 | 71 |  |  |  |  | CCCn1c(=O)c2[nH]c(-c3ccc(OCC4CC(=O)N(c5ccc(C(F)(F)F)cc5)C4)nc3)nc2n(CCC)c1=O (configuration not stated) | > 266 | 17 | solubility [15]: Insoluble
1.5 | 32 | 37 | 0 | 0.04 | 0.16 | 177 | 57 | 4 | 44 | 51 | 1.9 | 65 | CCCn1c(=O)c2[nH]c(-c3cnn(CC(=O)N4CCN(c5cccc(C(F)(F)F)c5)CC4)c3)nc2n(CCC)c1=O | 118 | 38 | IC50 [16]: > 25000 nM; IC50 (MDCK): > 100000 nM; IC50 (HepG2): > 100000 nM; inhibition (Mus musculus [17]): Active; inhibition (Mus musculus [18]): Active
4 | 6 | 4 | 4 | 0.16 | 0.08 | 670 | 460 | 8 | 3.8 | 2.9 | 0.9 | 11 | CCCn1c(=O)c2[nH]c(-c3cnn(CC4CC(=O)N(c5ccc(C(F)(F)F)cc5)C4)c3)nc2n(CC)c1=O (configuration not stated) | 167 | 115 | 
